From US8242118B2, “Arylsulfonamide derivatives for use as CCR3 antagonists in the treatment of inflammatory and immunological disorders” (Axikin Pharmaceuticals Inc., priority 2001, dated 2012) come the findings set out here.

Each structure is given as a SMILES string. Structures can show the parent of a compound that is named as a salt.

The target in one series is T1, Human CCR3 (Homo sapiens, UniProt P51677).
T1 construct: The cloned CCR3 cDNA was constructed with pcDNA3 vector and transfected into a IC562 cell line; expressed in transfected cells
T1 sequence (P51677 1-355): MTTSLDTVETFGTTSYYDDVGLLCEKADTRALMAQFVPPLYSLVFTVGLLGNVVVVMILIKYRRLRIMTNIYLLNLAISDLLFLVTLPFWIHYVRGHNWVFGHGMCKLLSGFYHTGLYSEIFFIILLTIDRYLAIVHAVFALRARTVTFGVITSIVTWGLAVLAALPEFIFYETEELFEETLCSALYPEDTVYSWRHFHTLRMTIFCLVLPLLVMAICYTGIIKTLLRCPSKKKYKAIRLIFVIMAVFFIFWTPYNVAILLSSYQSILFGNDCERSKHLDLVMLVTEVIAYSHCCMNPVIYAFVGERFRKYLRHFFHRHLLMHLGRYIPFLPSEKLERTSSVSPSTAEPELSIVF
Briefly: Calcium mobilization assay, eotaxin-stimulated. Type of series: cell-based. The conditions noted are these: human CCR3-transformed K562 cells, 10 nM eotaxin; compounds of about 40 to 90% purity; read-out: Activity grade Ca2+ (IC50 class). As for the experimental part: • Human CCR3-transformed K562 cells were used. The cloned CCR3 cDNA was constructed with pcDNA3 vector and transfected into a IC562 cell line. The human CCR3-transformed K562 cells were maintained in RPMI-1640 (Cat.#22400-089, Life Technologies) supplemented with 10% FCS (Cat.#A-1115-L, Hyclone), 55 μM 2-mercaptoethanol (Cat.#21985-023, Life Technologies), 1 mM sodium pyruvate (Cat.#11360-070, Life Technologies), 100 units/ml of penicillin G and 100 μg/ml of streptomycin (Cat.#15140-122, Life Technologies), and 0.4 mg/ml of Geneticin (Cat.#10131-035, Life Technologies)(hereinafter called “culture medium”). Before the receptor binding assay, cells were pretreated with 5 mM sodium butyrate (Cat.#193-01522, Wako)-containing the culture medium (2×10^5 cells/ml) for 20-24 hours to increase the expression of CCR3. (2) Receptor Binding Assay (RBA) • Butyrate-pretreated cells, suspended in binding buffer (25 mM HEPES pH 7.6, 1 mM CaCl2, 5 mM MgCl2, 0.5% BSA, 0.1% NaN3) at a cell density of 2×10^6 cells/ml, were added into 60 μl/well in the 96-well round bottom polypropylene plate (Cat.#3365, Costar). Compounds, diluted with the binding buffer (4-times higher concentration of the final concentration), were added into 30 μl/well in the polypropylene plate. [^125I]-labeled human eotaxin (Cat.#IM290, Amersham Pharmacia Biotech), diluted with the binding buffer at the concentration of 0.4 nM (final concentration; 0.1 nM), was added into 30 μl/well in the polypropylene plate. Total 120 μl/well of binding reaction mixture (60 μl/well of cell suspension, 30 μl/well of compound solution, and 30 μl/well of [^125I]-labeled eotaxin) were incubated in the polypropylene plate for 1 hour at room temperature after the incubation, 100 μl/well of the reaction mixture was transferred to a filtration plate (Cat.#MAFB-N0B, Millipore), and washed with the washing buffer (25 mM HEPES pH 7.6, 1 mM CaCl2, 5 mM MgCl2, 0.5% BSA, 0.1% NaN3, 0.5 M NaCl) twice. The 96-well filtration plate was pretreated with 100 μl/well of 0.5% polyethylenimine (Cat.#P-3143, Sigma) for 2-4 hours at room temperature and washed with the washing buffer twice before use. The non-specific binding was determined by parallel incubation in the presence of 500 nM of non-labeled eotaxin (Cat.#23209, Genzyme Techne). The radioactivities remained on the filter were measured by liquid scintillation counter (TopCount™, Packard) after an addition of 45 μl/well of scintillant (Microscint20, Cat.#6013621, Packard). The inhibition percent at each concentration of compound was calculated, and IC50 values were determined from the inhibition curve. [Determination of IC50 Values of Compounds in Calcium Mobilization Assay] (IC50 Ca2+) (1) Cell • Human CCR3-transformed K562 cells were used. The human CCR3-transformed K562 cells were maintained in RPMI-1640 supplemented with 10% FCS, 55 μM 2-mercaptoethanol (Cat.#21985-023, Life Technologies), 1 mM sodium pyruvate, 100 units/ml of penicillin G and 100 μg/ml of streptomycin and 0.4 mg/ml of Geneticin. Before the calcium mobilization assay, cells were pretreated with 5 mM sodium butyrate-containing the culture medium (2×10^5 cells/ml) for 20-24 hours to increase the expression of CCR3. (2) Calcium Mobilization Assay • Butyrate-pretreated cells were loaded with Fluo-3AM (Cat.#F-1242, Molecular Probes) in loading buffer (Hanks' solution Cat.#05906 Nissui, 20 mM HEPES pH 7.6, 0.1% BSA, 1 mM probenecid Cat.#P-8761 Sigma, 1 μM Fluo-3AM, 0.01% pluronic F-127 Cat.#P-6866 Molecular Probes) at a cell density of 1×10^7 cells/ml. Then, cells were washed with calcium assay buffer (Hanks' solution Cat.#05906 Nissui, 20 mM HEPES pH 7.6, 0.1% BSA, 1 mM Probenecid Cat.#P-8761 Sigma). The cell suspension (3.3×10^6 cells/ml) was added into 60 μl/well in the 96-well clear bottom black plate (Cat.#3904, Costar). Compounds, diluted (5-times concentration of the final concentration) with the calcium assay buffer, were added into 20 μl/well in the plate 10 minutes before assay. […]
On the technique in general: A change in cytosolic calcium serves as a functional read-out for many receptors and channels.
Take `Cc1cc(C)cc(Oc2cc(Br)cc(S(=O)(=O)N3CCNCC3)c2)c1` [Example 24-1, 1-{[3-bromo-5-(3,5-dimethylphenoxy)phenyl]sulfonyl}piperazine hydrochloride]: the IC50 (usually the midpoint of a concentration-inhibition curve) is less than 1000 nM.

System in the next series: not given
Assay: not given
Conditions: not given
Take `Cc1cc(C)cc(Oc2ccc(S(=O)(=O)N3CCNCC3)cc2S(=O)(=O)N2CCNCC2)c1.Cl.Cl`: the melting point (usually the temperature, or range, at which the solid turns liquid) was 214 to 220 °C.

`Cc1cc(C)cc(Oc2ccc([N+](=O)[O-])cc2S(=O)(=O)N2CCNCC2)c1` (as salt: hydrochloride) [Example 1-2, 1-{[2-(3,5-dimethylphenoxy)-5-nitrophenyl]sulfonyl}piperazine hydrochloride]: the melting point fell in the range of 264 to 266 °C.

For `Cc1cc(C)cc(Sc2ccc([N+](=O)[O-])cc2S(=O)(=O)N2CCNCC2)c1` (as salt: hydrochloride) [Example 2-1, 1-({2-[(3,5-dimethylphenyl)-sulfanyl]-5-nitrophenyl}sulfonyl)piperazine hydrochloride], the melting point is 225 to 227 °C.

For the molecule `Cc1cc(C)cc(Nc2ccc([N+](=O)[O-])cc2S(=O)(=O)N2CCNCC2)c1` (as salt: hydrochloride) [Example 3-1, N-(3,5-dimethyl-phenyl)-4-nitro-2-(1-piperazinylsulfonyl)aniline dihydrochloride], the melting point fell in the range of 175 to 179 °C.

In turn, `Cc1cc(C)cc(Oc2ccc(Cl)cc2S(=O)(=O)N2CCNCC2)c1` (as salt: hydrochloride) [Example 5-2, 1-{[5-chloro-2-(3,5-dimethylphenoxy)phenyl]sulfonyl}piperazine hydrochloride] returned a melting point of 202 to 204 °C.

On to `COc1ccc(Oc2cc(C)cc(C)c2)c(S(=O)(=O)N2CCNCC2)c1` (as salt: hydrochloride) [Example 6-2], for which the melting point fell in the range of 175 to 177 °C.

Molecule `CN(C)C(=O)c1ccc(Oc2cc(Cl)cc(Cl)c2)c(S(=O)(=O)N2CCNCC2)c1` (as salt: hydrochloride) [Example 10-1, 4-(3,5-dichlorophenoxy)-N,N-dimethyl-3-(1-piperazinylsulfonyl)benzamide hydrochloride] returned a melting point of 197 to 199 °C.

In the case of `N#Cc1ccc(Oc2cc(Cl)cc(Cl)c2)c(S(=O)(=O)N2CCCNCC2)c1` (as salt: hydrochloride) [Example 12-1, 3-(1,4-diazepan-1-ylsulfonyl)-4-(3,5-dichlorophenoxy)benzonitrile hydrochloride], the melting point lay in the range of 278 to 280 °C.

Turning to `N#Cc1ccc(Oc2cc(Cl)cc(Cl)c2)c(S(=O)(=O)N2CC[C@H](N)C2)c1` (as salt: hydrochloride) [Example 13-1, 1-{5-cyano-2-(3,5-dichlorophenoxy)phenylsulfonyl}-(3S)-aminopyrrolidine hydrochloride], the melting point stood at 276 °C.

In turn, `COC(=O)c1ccc(Oc2cc(C)cc(C)c2)c(S(=O)(=O)N2CCNCC2)c1` (as salt: hydrochloride) [Example 15-2, methyl 4-(3,5-dimethylphenoxy)-3-(1-piperazinylsulfonyl)benzoate hydrochloride] yielded a melting point of 120 °C.

Take `Cc1cc(C)cc(Oc2ccc(CO)cc2S(=O)(=O)N2CCNCC2)c1` (as salt: hydrochloride) [Example 16-1, [4-(3,5-dimethylphenoxy)-3-(1-piperazinylsulfonyl)phenyl]methanol hydrochloride]: the melting point is 160 °C.

On to `N#Cc1ccc(Sc2cc(Cl)cc(Cl)c2)c(S(=O)(=O)N2CCNCC2)c1` (as salt: hydrochloride) [Example 17-1, 4-[(3,5-dichlorophenyl)sulfanyl]-3-(1-piperazinylsulfonyl)benzonitrile hydrochloride], for which the melting point is 82 °C.

`N#Cc1ccc(S(=O)(=O)c2cc(Cl)cc(Cl)c2)c(S(=O)(=O)N2CCNCC2)c1` (as salt: hydrochloride) [Example 18-1, 4-[(3,5-dichlorophenyl)sulfonyl]-3-(1-piperazinylsulfonyl)benzonitrile hydrochloride] gave a melting point of 258 °C.

For `N#Cc1ccc([S+]([O-])c2cc(Cl)cc(Cl)c2)c(S(=O)(=O)N2CCNCC2)c1` (stereo not drawn) (as salt: hydrochloride) [Example 19-1, 4-[(3,5-dichlorophenyl)sulfinyl]-3-(1-piperazinylsulfonyl)benzonitrile hydrochloride], the melting point is 219 °C.

Consider `CN(c1cc(Cl)cc(Cl)c1)c1ccc(C#N)cc1S(=O)(=O)N1CCNCC1` (as salt: hydrochloride) [Example 21-1, 4-[(3,5-dichlorophenyl)(methyl)amino]-3-(1-piperazinylsulfonyl)benzonitrile hydrochloride], for which the melting point amounted to 163 °C.

On to `Cc1cc(C)cc(Oc2ccc(C(=O)NCCC#N)cc2S(=O)(=O)N2CCNCC2)c1` (as salt: hydrochloride) [Example 22-1, N-(2-cyanoethyl)-4-(3,5-dimethylphenoxy)-3-(1-piperazinylsulfonyl)benzamide hydrochloride], for which the melting point is 101 °C.

With `Cc1cc(C)cc(Oc2ccc(C(=O)NCCC(N)=O)cc2S(=O)(=O)N2CCNCC2)c1` (as salt: hydrochloride) [Example 22-2, N-[4-(3,5-dimethylphenoxy)-3-(1-piperazinylsulfonyl)benzoyl]-beta-alanineamide hydrochloride], the melting point is 121 °C.

Molecule `Cc1cc(C)cc(Oc2ccc(-c3nnnn3CCC#N)cc2S(=O)(=O)N2CCNCC2)c1` (as salt: hydrochloride) [Example 22-3, 3-{5-[4-(3,5-dimethylphenoxy)-3-(1-piperazinylsulfonyl)phenyl]-1H-tetraazol-1-yl}propanenitrile hydrochloride] had a melting point of 125 °C.

Consider `Cc1cc(C)cc(Oc2ccc(-c3nnn[nH]3)cc2S(=O)(=O)N2CCNCC2)c1` (as salt: hydrochloride) [Example 22-4, 1-{[2-(3,5-dimethylphenoxy)-5-(1H-tetraazol-5-yl)phenyl]sulfonyl}piperazine hydrochloride], for which the melting point worked out at 213 °C.

Consider `Cc1cc(C)cc(Oc2cc([N+](=O)[O-])ccc2S(=O)(=O)N2CCNCC2)c1` (as salt: hydrochloride) [Example 23-1, 1-{2-(3,5-dimethylphenoxy)-4-nitrophenylsulfonyl}piperazine hydrochloride], for which the melting point worked out at 284 °C.
